Values quoted from earlier work as cited in patent publication US20170296470A1, “TWO SPEED MONOLOTHIC SYSTEM FOR CONTROLLED RELEASE OF DRUGS” (Matripharm Inc., priority 2011, published 2017).

Settings: for numbers needed to harm: one out of N patients likely to suffer a first-time heart attack: patients in the age group of 65 and over; for risk of heart attack increased: patients prescribed the NSAID vs those who had not taken these drugs in the previous three years

| numbers needed to harm: one out of N patients likely to suffer a first-time heart attack [patients] | risk of heart attack increased [%] | SMILES |
| --- | --- | --- |
| 521 | 55 | O=C(O)Cc1ccccc1Nc1c(Cl)cccc1Cl [diclofenac] |
| 1005 | 24 | CC(C)Cc1ccc(C(C)C(=O)O)cc1 (centres unmarked) [ibuprofen] |
| 695 | – | CS(=O)(=O)c1ccc(C2=C(c3ccccc3)C(=O)OC2)cc1 [rofecoxib] |
